{
  "source": "paper PMC5841303",
  "about": "“In silico screening for human norovirus antivirals reveals a novel non-nucleoside inhibitor of the viral polymerase” (Scientific Reports, 2018)",
  "key": {"[1]": {"experiment": "CellTitre Blue cell viability (cytotoxicity) assay", "format": "cell-based", "conditions": "mouse, RAW264.7 mouse macrophage cells, 0.5–100 µM, read-out: CC50 (half maximal cytotoxic concentration)", "description": "(§1) As mentioned above, the only robust cellular assay available for the evaluation of potential norovirus inhibitors is the closely related MNV assay. […] Consequently, 54 was further assessed to determine the IC50 value against MNV RdRp activity using an in vitro fluorescent assay. […] 54 was then assessed for cytotoxicity against RAW264.7 mouse macrophage cells using a cell viability assay. […] Using the plaque reduction assay, the inhibitory effects of 54 (0.5–50 µM) were examined against MNV plaque formation in cell culture. […] Compound solubility and its cell-membrane permeability properties could be further improved with structure-activity relationship enhancement of the 54 scaffold to facilitate cellular uptake, and therefore to increase antiviral efficacy. Work on this aspect is ongoing, and it will be reported in due course.\n(§2) MNV-1 (CW1) culture assays were performed as previously described. Replication was examined using plaque assays[58],[64],[65]. Cytotoxicity was examined using a CellTitre Blue (Promega, Madison, WI, USA) viability assay as described previously."}, "MNV": {"test_system": "MNV", "experiment": "MNV plaque reduction assay in cell culture", "format": "cell-based, murine norovirus", "description": "as §1, §2"}, "norovirus RdRp": {"test_system": "norovirus RdRp", "experiment": "Counter-screen gel-shift RdRp assay (primed elongation of PE44-NoV template)", "format": "biochemical, human norovirus", "conditions": "fixed concentration of 100 µM", "description": "In this assay, a 32 nucleotide RNA template (PE44-NoV) is extended to 44 nucleotides in the presence of an active RdRp[16]. […] Inhibition of primed elongation of the PE44-NoV template was examined at a fixed concentration of 100 µM (Fig. 4D). In the absence of inhibition (0.5% DMSO vehicle only) the RNA template was extended to 44 nucleotides (Fig. 4D), evidenced by an upward gel shift and the appearance of the second, higher band.\nFluorescent RdRp activity assays were carried out as previously described[14],[62]. Briefly, RdRp activity was quantified by monitoring the formation of double-stranded RNA (dsRNA) from a single stranded homopolymeric template, poly(C) (Sigma Aldrich, St Louis, MO, USA), using the fluorescent dye PicoGreen (Life Technologies, Carlsbad, CA, USA). RdRp assays were performed in 384-well plates, and each reaction mixture contained 400 ng enzyme, 45 µM GTP, 10 ng/µL poly(C) RNA, 2.5 mM MnCl2, 5 mM dithiothreitol, (DTT), 0.01% bovine serum albumin (BSA), and 0.005% Tween 20 in 20 mM Tris-HCl, pH 7.5, with a final reaction volume of 25 µL. The previous published norovirus NNI NIC02 was used as a positive control. RdRps were incubated for 10 mins at 30 °C in the presence of the test compounds or the compound vehicle DMSO (0.5% vol/vol) before addition into the reaction mixture, which was then allowed to run 15 min at 30 °C then terminated with 10 mM EDTA, followed by PicoGreen staining and dsRNA quantitation. GraphPad Prism V6.05 (La Jolla, CA, USA) was used to plot the IC50 values. In cases where fluorescent enhancement was recorded for a compound instead of inhibition, a secondary gel-based polymerase activity assay was used as a counter-screen as described below, to exclude the possibility of RdRp activity enhancement (Supplementary Fig. S1). Primed elongation activity was examined in a gel-based assay as previously described[16],[63] using the RNA template (PE44-NoV, Fig. 4D). Gels were imaged using BioRad (Hercules, CA, U.SA) Geldoc Universal Hood II, running BioRad Image Lab software, V4.1, build 16. Antagonism was calculated using Compusyn software V1.0[59]. 54 and PPNDS (4:1 ratio) were tested alone and together against norovirus Sydney 2012 RdRp."}, "RHDV RdRp": {"test_system": "RHDV RdRp", "experiment": "Fluorescent RdRp activity assay, RHDV RdRp", "format": "biochemical, rabbit haemorrhagic disease virus", "conditions": "fixed concentration of 100 µM", "text": "The antiviral activity of the four compounds (11, 13, 42a and 54) were examined for inhibition of RNA polymerases from other viruses spanning three genera of the Caliciviridae family, including Norovirus (human norovirus and MNV), Lagovirus (rabbit haemorrhagic disease virus [RHDV]) and Sapovirus (human sapovirus). […] The protein sequence of the examined calicivirus polymerases has an identity range between 30.2–61.4%, and therefore the broad-spectrum activity of these compounds could be attributed to a common, highly-conserved binding pocket across the RdRps, as has been previously reported with broad-spectrum activity of other site-B binding NNIs[16]. […]\n(§3) Fluorescent RdRp activity assays were carried out as previously described[14],[62]. Briefly, RdRp activity was quantified by monitoring the formation of double-stranded RNA (dsRNA) from a single stranded homopolymeric template, poly(C) (Sigma Aldrich, St Louis, MO, USA), using the fluorescent dye PicoGreen (Life Technologies, Carlsbad, CA, USA). […] RdRps were incubated for 10 mins at 30 °C in the presence of the test compounds or the compound vehicle DMSO (0.5% vol/vol) before addition into the reaction mixture, which was then allowed to run 15 min at 30 °C then terminated with 10 mM EDTA, followed by PicoGreen staining and dsRNA quantitation. […] Antagonism was calculated using Compusyn software V1.0[59]. […]"}, "Q414A norovirus RdRp": {"target": "T1, Q414A norovirus RdRp (Norovirus GII.4 (Norwalk virus, human norovirus), UniProt K4L8Z7, Q1603A)", "T1 sequence (K4L8Z7 1190-1699 Q1603A)": "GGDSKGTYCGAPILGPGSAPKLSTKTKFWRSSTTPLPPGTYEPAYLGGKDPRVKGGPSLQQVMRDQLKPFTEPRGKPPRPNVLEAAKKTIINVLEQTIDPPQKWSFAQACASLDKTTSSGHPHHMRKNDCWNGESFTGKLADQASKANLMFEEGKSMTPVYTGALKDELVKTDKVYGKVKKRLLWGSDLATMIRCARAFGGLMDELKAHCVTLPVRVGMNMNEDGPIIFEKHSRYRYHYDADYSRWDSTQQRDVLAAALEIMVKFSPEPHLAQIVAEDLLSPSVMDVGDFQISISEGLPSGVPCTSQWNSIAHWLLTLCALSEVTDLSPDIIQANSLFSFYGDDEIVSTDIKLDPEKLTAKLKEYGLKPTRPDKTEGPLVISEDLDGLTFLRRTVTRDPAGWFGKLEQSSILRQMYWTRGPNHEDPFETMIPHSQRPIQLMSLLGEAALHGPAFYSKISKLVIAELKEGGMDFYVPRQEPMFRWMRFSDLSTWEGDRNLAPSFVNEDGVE", "experiment": "Fluorescent RdRp assay, Q414A mutant RdRp", "format": "biochemical", "conditions": "0.1–100 µM", "text": "Given the evidence of 54 being a site-B binding NNI, residues Q414 and R419 were mutated to alanine. These residues were previously shown by our research group and others to be critical for human norovirus RdRp site-B binding NNIs, and can create resistance to the drug through their mutagenesis[16],[17],[39]. After the mutant RdRps’ transcriptional activity was confirmed in a fluorescent RdRp assay (Q414A: 54%, R419A: 34% of wild-type activity, respectively), dose-response curves for 54 (0.1–100 µM) were produced to compare the IC50 values between the wild-type RdRp and the two mutant RdRps, Q414A and R419A (Fig. 13B). […]\nas §3"}},
  "data": [
    {"molecule": "O=C1NN(c2ccccc2)C(=O)/C1=C/c1ccc(-c2ccc(S(=O)(=O)Nc3ccccc3)cc2)o1", "note": "[Compound 54]", "values": [
      {"measurement": "CC50", "setting": "[1]", "value": 62.8, "unit": "µM"},
      {"measurement": "cytotoxicity seen in plaque assay", "setting": "MNV; 50 µM, RAW264.7 cells", "value": "RAW264.7 cells thinning"},
      {"measurement": "EC50", "setting": "MNV; 0.5–50 µM, read-out: EC50 against MNV in cell culture (plaque reduction)", "value": "> 50", "unit": "µM"},
      {"measurement": "effect on plaque numbers", "setting": "MNV; up to 25 µM", "value": "no appreciable effect"},
      {"measurement": "inhibition of primed elongation activity (gel-shift)", "setting": "norovirus RdRp", "value": "near complete abolishment of norovirus RdRp activity"},
      {"measurement": "inhibition of RHDV RdRp activity", "setting": "RHDV RdRp", "value": 99.0, "unit": "%"},
      {"measurement": "IC50", "setting": "Q414A norovirus RdRp", "value": 7.8, "unit": "µM"}
    ]}
  ]
}
